Tests used:
RIPK1 = RIPK1 (Homo sapiens (Human), UniProt Q13546); experiment: ADP-Glo kinase assay, RIPK1 activity; format: biochemical; conditions: 5 nM RIPK1, 50 μM ATP, 6 hr reaction
Description: In order to measure RIPK1 activity the ADP-Glo kinase assay (Promega, Catalog #V7002) was used to measure the conversion of ATP to ADP. This enzymatic assay was performed in a 384-well white, Optiplate (Perkin Elmer, Catalog #6007299) with assay buffer consisting of 50 mM HEPES pH 7.5 (Gibco, Catalog #15630-080), 50 mM NaCl (Teknova, Catalog #S0252), 30 mM MgCl2 (Ambion, Catalog #AM9530G), 1 mM DTT (Santa Cruz Biotechnology, Catalog #sc-29089), 0.05% BSA (Sigma, Catalog #A3059-50G) and 0.02% CHAPS (Sigma, Catalog #C5070-5G). Stock solutions of the test compounds were prepared in 100% DMSO (Sigma, Catalog #D2650) and serially diluted 1:3 using 100% DMSO. Compounds were additionally diluted 1:40 in assay buffer, and 2 μL/well were transferred to the assay plate. 4 μL/well (final concentration of 5 nM) of RIPK1 protein (SignalChem, Catalog #R07-11G-05) diluted in assay buffer and added to the assay plate followed by a 10 minute preincutation at room temperature. 4 μL/well of ATP (Promega, Catalog #V7002) (final concentration of 50 μM) diluted in assay buffer were then added to the assay plate followed by a 6 hr reaction time. Final concentrations of RIPK1 and ATP refer to a 10 μL volume. Luminescence was measured using a BioTek Synergy™ NEO plate reader. IC50 values were calculated using a four-parameter logistic curve fit using Genedata Screener software.

U937 cells = experiment: Human U937 cellular necroptosis assay; format: cell-based; conditions: U-937; U937 cells stimulated with 25 ng/mL human TNFalpha and 25 μM z-VAD-FMK; 22 hr; Cell Titer-Glo viability
Description: Human U937 Cellular Necroptosis Assay
The human monocytic cell line U937 (CRL-1593.2) may be purchased from ATCC. The cells are routinely maintained in RPMI-1640 Medium (Gibco, Catalog #11875-093) supplemented with 10% heat inactivated fetal bovine serum (Gibco, Catalog #16140-071), 100 units/mL penicillin and 100 μg/mL streptomycin (Gibco, Catalog #15140-122), in a humidified incubator (37° C., 5% CO2). For the assay, cells are resuspended in RPMI-1640 phenol red free Media (Gibco, Catalog #11835-030) supplemented with 10% fetal bovine serum (Sigma, Catalog #F2442), 100 units/mL penicillin and 100 ug/mL streptomycin. […] Stock solutions of the test compounds are prepared in 100% DMSO (Sigma, Catalog #D2650) and serially diluted 1:3 using 100% DMSO. Compounds are additionally diluted 1:40 in assay medium, and 10 μL/well was transferred to the plate. Following the compound addition, the plate is incubated at 37° C. and 5% CO2 for 22 hr. After 22 hr, viability is assessed with the addition of 20 μL of Cell Titer-Glo 2.0 (Promega, Catalog #G9243). The tissue culture plate is shaken on an orbital shaker at 300 RPM for 15 minutes at room temperature in the dark. Luminescence is measured using a PerkinElmer Envision™ plate reader. IC50 values are calculated using a four-parameter logistic curve fit using Genedata Screener software.

Sequence of RIPK1 (Q13546 1-327): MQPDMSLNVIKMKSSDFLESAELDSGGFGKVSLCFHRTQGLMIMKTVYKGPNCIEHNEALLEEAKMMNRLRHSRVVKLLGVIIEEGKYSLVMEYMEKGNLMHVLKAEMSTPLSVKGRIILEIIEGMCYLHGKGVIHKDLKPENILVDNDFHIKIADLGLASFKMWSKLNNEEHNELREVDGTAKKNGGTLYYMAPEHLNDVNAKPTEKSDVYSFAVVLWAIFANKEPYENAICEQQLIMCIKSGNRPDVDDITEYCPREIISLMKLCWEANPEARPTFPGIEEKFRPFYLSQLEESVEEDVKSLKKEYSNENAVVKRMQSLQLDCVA

Row | SMILES | IC50 (RIPK1) [µM] | IC50 (U937 cells) [nM]
1 | O=C(Nc1cccc(Cl)c1F)c1ncn(Cc2cncc(F)c2)n1 [Example 103, N-(3-chloro-2-fluorophenyl)-1-((5-fluoropyridin-3-yl)methyl)-1H-1,2,4-triazole-3-carboxamide] | 0.0839 | 
2 | O=C(Nc1cc(C(F)(F)F)cc(Cl)c1F)c1ncn(Cc2ccccc2)n1 [Example 38, 1-benzyl-N-(3-chloro-2-fluoro-5-(trifluoro-methyl)phenyl)-1H-1,2,4-triazole-3-carboxamide] | 1.29 | 
3 | N#Cc1ccc(NC(=O)c2ncn(Cc3ccccc3)n2)c(F)c1Cl [Example 39, 1-benzyl-N-(3-chloro-4-cyano-2-fluorophenyl)-1H-1,2,4-triazole-3-carboxamide] | 1.41 | 
4 | Cc1ccc(Cn2cnc(C(=O)Nc3cccc(Cl)c3F)n2)cn1 [Example 90] | 1.46 | 2600
5 | O=C(Nc1ccc(Br)c(Cl)c1F)c1ncn(Cc2ccccc2)n1 [Example 40, 1-benzyl-N-(4-bromo-3-chloro-2-fluoro-phenyl)-1H-1,2,4-triazole-3-carboxamide] | 1.65 | 
6 | O=C1c2cc(Cc3ccccc3)ccc2CN1c1ccccc1F [Example 48, 6-Benzyl-2-(2-fluorophenyl)isoindolin-1-one] | 2.47 | 
7 | Cc1c(F)c(C(=O)Nc2cccc(Cl)c2F)nn1Cc1ccccc1 [Example 6, 1-Benzyl-N-(3-chloro-2-fluorophenyl)-4-fluoro-5-methyl-1H-pyrazole-3-carboxamide] | 0.92 | 
8 | Cn1cc(C(=O)Nc2cccc(Cl)c2F)nc1Cc1ccccc1 [Example 44, 2-benzyl-N-(3-chloro-2-fluorophenyl)-1-methyl-1H-imidazole-4-carboxamide] | > 33 | 
9 | O=C1c2nc(Cc3ccccc3)c(Cl)n2CCN1c1cccc(Cl)c1F [Example 16, 2-Benzyl-3-chloro-7-(3-chloro-2-fluoro-phenyl)-5,6-dihydroimidazo[1,2-a]pyrazin-8-one] | 0.123 | 
10 | COc1ccc(N(C)C(=O)c2ncn(Cc3ccccc3)n2)c(F)c1Cl [Example 41, 1-benzyl-N-(3-chloro-2-fluoro-4-methoxy-phenyl)-N-methyl-1H-1,2,4-triazole-3-carboxamide] | 9.25 | 
11 | Cc1cc(NC(=O)c2ncn(Cc3ccccc3)n2)ccc1OC(F)(F)F [Example 53, 1-benzyl-N-(3-methyl-4-(trifluoromethoxy)-phenyl)-1H-1,2,4-triazole-3-carboxamide] | 4.91 | 
12 | O=C1c2nc(Cc3ccccc3)cn2CCN1c1cccc(Cl)c1 [Example 43, 2-benzyl-7-(3-chlorophenyl)-6,7-dihydroimidazo[1,2-a]pyrazin-8(5H)-one] | 13.7 | 
13 | O=C(Nc1cccc(Cl)c1F)c1cc(O)n(Cc2cnccn2)n1 [Example 8, N-(3-chloro-2-fluoro-phenyl)-5-hydroxy-1-(pyrazin-2-ylmethyl)pyrazole-3-carboxamide] | 31.2 | 
14 | Cc1nc(C(=O)Nc2cccc(Cl)c2F)nn1Cc1cccc(C#N)c1 [Example 34, N-(3-chloro-2-fluoro-phenyl)-1-(3-cyano-benzyl)-5-methyl-1H-1,2,4-triazole-3-carboxamide] | 0.472 | 
15 | O=C(Nc1ccc(Cl)c(Cl)c1F)c1ncn(Cc2ccccc2)n1 [Example 37, 1-benzyl-N-(3,4-dichloro-2-fluoro-phenyl)-1H-1,2,4-triazole-3-carboxamide] | 1.1 | 
16 | O=C1c2nc(Cc3ccccc3)ccc2CN1c1ccccc1F [Example 49, 2-Benzyl-6-(2-fluorophenyl)-5,6-dihydro-7H-pyrrolo[3,4-b]pyridin-7-one] | 3.68 | 

Row | SMILES | IC50 (RIPK1) [µM] | IC50 (U937 cells) [nM]
17 | O=C(Nc1cccc(Cl)c1F)c1c[nH]c(Cc2ccccc2)n1 [Example 45, 2-benzyl-N-(3-chloro-2-fluorophenyl)-1H-imidazole-4-carboxamide] | 48.6 | 
18 | O=C1c2nc(Cc3ccccc3)c(Cl)n2CCN1c1cccc(Cl)c1 [Example 42, 2-benzyl-3-chloro-7-(3-chlorophenyl)-6,7-dihydroimidazo[1,2-a]pyrazin-8(5H)-one] | 0.318 | 
19 | Cc1c2c(nn1Cc1ccccc1)C(=O)N(c1cccc(Cl)c1F)CC2 [Example 70, 2-benzyl-6-(3-chloro-2-fluorophenyl)-3-methyl-2,4,5,6-tetrahydro-7H-pyrazolo[3,4-c]pyridin-7-one] |  | 233
20 | C[C@H](c1cccc(F)c1F)n1nc2c(c1Cl)CCN(c1cccc(Cl)c1F)C2=O (single isomer, unassigned) [Example 55a] |  | > 10000
21 | O=C(Nc1cccc(Cl)c1F)c1ccn(Cc2ccccc2)n1 [Example 7, 1-Benzyl-N-(3-chloro-2-fluorophenyl)-1H-pyrazole-3-carboxamide] | 12.1 | 
22 | O=C1c2nn(Cc3ncccc3F)c(Cl)c2CCN1c1cc(CO)cc(Cl)c1F [Example 76, 3-chloro-6-(3-chloro-2-fluoro-5-(hydroxymethyl)phenyl)-2-((3-fluoropyridin-2-yl)methyl)-2,4,5,6-tetrahydro-7H-pyrazolo[3,4-c]pyridin-7-one] |  | 917
23 | N#Cc1cccc(Cn2cc3c(n2)C(=O)N(c2cccc(Cl)c2F)CC3)c1 [Example 59, 3-((6-(3-chloro-2-fluorophenyl)-7-oxo-4,5,6,7-tetrahydro-2H-pyrazolo[3,4-c]pyridin-2-yl)methyl)benzonitrile] |  | 811
24 | N#Cc1cccc(Cn2nc3c(c2Cl)CCN(c2cccc(Cl)c2F)C3=O)c1 [Example 58, 3-((3-Chloro-6-(3-chloro-2-fluorophenyl)-7-oxo-4,5,6,7-tetrahydro-2H-pyrazolo[3,4-c]pyridin-2-yl)methyl)benzonitrile] |  | 95.9
25 | O=C1c2nc(Cc3ccccc3)cn2CCN1c1cccc(Cl)c1F [Example 15, 2-Benzyl-7-(3-chloro-2-fluoro-phenyl)-5,6-dihydroimidazo[1,2-a]pyrazin-8-one] | 3.15 | 
26 | C[C@@H](c1cccc(F)c1F)n1nc2c(c1Cl)CCN(c1cccc(Cl)c1F)C2=O (single isomer, unassigned) [Example 55b] |  | 6390
27 | O=C1c2nn(Cc3ccc(F)cc3)c(Cl)c2CCN1c1cccc(Cl)c1F [Example 66, 3-chloro-6-(3-chloro-2-fluorophenyl)-2-(4-fluorobenzyl)-2,4,5,6-tetrahydro-7H-pyrazolo[3,4-c]pyridin-7-one] |  | 291
28 | Cc1cc(C(=O)Nc2cccc(Cl)c2F)nn1Cc1ccccc1 [Example 5, 1-benzyl-N-(3-chloro-2-fluoro-phenyl)-5-methyl-pyrazole-3-carboxamide] | 14.5 | 
29 | O=C(Nc1cccc(Cl)c1F)c1nc(Cc2ccccc2)c[nH]1 [Example 14, 4-Benzyl-N-(3-chloro-2-fluoro-phenyl)-1H-imidazole-2-carboxamide] | 6.96 | 
30 | O=C1c2nn(Cc3cnccn3)c(Cl)c2CCN1c1cccc(Cl)c1F [Example 62, 3-chloro-6-(3-chloro-2-fluorophenyl)-2-(pyrazin-2-yl-methyl)-2,4,5,6-tetrahydro-7H-pyrazolo[3,4-c]pyridin-7-one] |  | 53.7
31 | O=C(Nc1cccc(Cl)c1F)c1nc(Cc2ccccc2)c(Cl)[nH]1 [Example 18, 4-Benzyl-5-chloro-N-(3-chloro-2-fluoro-phenyl)-1H-imidazole-2-carboxamide] | 18.7 | 
32 | O=C1c2nn(Cc3cccc(F)c3F)c(Cl)c2CCN1c1cc(CNCC(F)(F)F)cc(Cl)c1F [Example 83, 3-chloro-6-(3-chloro-2-fluoro-5-(((2,2,2-trifluoroethyl)amino)methyl)phenyl)-2-(2,3-difluorobenzyl)-2,4,5,6-tetrahydro-7H-pyrazolo[3,4-c]pyridin-7-one] |  | 1230

From patent US11718612B2, “Inhibitors of receptor interacting protein kinase I for the treatment of disease” (Board of Regents, The University of Texas System, priority 2019, dated 2023)
